ChEMBL document CHEMBL5728228, “Inhibitors of cyclin-dependent kinases” (2021)

assay: Protein kinase assay (Condition B: Thiol-free Conditions): The IC50 profile of compounds was determined using one protein kinase in a customized, thiol free assay. […] Prior to testing, the 1×10−03 M stock solutions in column 2 of the master plates were subjected to a serial, semi-logarithmic dilution using 100% DMSO as a solvent. […] Column 1 and 7 were filled with 100% DMSO as controls. Subsequently, 2×10 microliter from each well of the serial diluted copy plates were aliquoted with a 96 channel pipettor into two identical sets of “compound dilution plates”. All plates were barcoded for automated identification and tracking purposes. […] All compounds were stored as powder until being solubilized in DMSO. Solubilized compounds were stored as 1×10−02 M/100% DMSO stock solutions. Prior to the assay process, 90 microliters of H2O were added to each well of a set of compound dilution plates. To minimize potential precipitation, the H2O was added to each plate only a few minutes before the transfer of the compound solutions into the assay plates. Each plate was shaken thoroughly, resulting in compound dilution plates with a final of 10% DMSO. For each assay, 5 microliters of solution from each well of the compound dilution plates/10% DMSO were transferred into the assay plate. The final volume of the assay was 50 μl. All compounds were tested at 10 final assay concentrations in the range from 1×10−05 M to 3×10−10 M, in singlicate. The final DMSO concentration in the reaction cocktails was 1% in all cases. A radiometric protein kinase assay (33PanQinase® Activity Assay) was used for measuring the kinase activity of the protein kinase. All kinase assays were performed in 96-well FlashPlates™ from PerkinElmer (Boston, Mass., USA) in a 50 microliter reaction volume. The reaction cocktail was pipetted in four steps in the following order: 20 microliter of assay buffer (standard buffer)·5 microliter of ATP solution (in H2O)·5 microliter of test compound (in 10% DMSO)·20 microliter enzyme/substrate mix. […] For all experiments labeled as “Thiol-free”, all glutathione was exchanged from protein preparations so as to be removed from the assay and final buffer conditions contained no thiol-containing reagents. This was done so there would be no interference with the key cysteines in the proteins of interest.

**Q.** Which IC50 does the source give for `C=CC(=O)Nc1ccc(C(=O)N2CC[C@@H](Nc3ncc(Cl)c(OC)n3)C2)cc1C` here?
**A.** < 100 nM

**Q.** For `C=CC(=O)Nc1ccc(C(=O)N2CC[C@@H](Nc3ncc(Br)cn3)C2)cc1`, which IC50 is on record?
**A.** < 100 nM

**Q.** Which IC50 does the source give for `CCC(=O)Nc1ccc(C(=O)N2CC[C@@H](Nc3ncc(Br)c(OC)n3)C2)cc1` here?
**A.** < 100 nM

**Q.** Which IC50 does the source give for `C=CC(=O)Nc1ccc(C(=O)N2CC[C@@H](Nc3ncc(Cl)c(OC)n3)C2)cc1` here?
**A.** < 100 nM

**Q.** With `C=CC(=O)N(C)c1ccc(C(=O)N2CC[C@@H](Nc3ncc(Cl)c(OC)n3)C2)cc1` as the molecule, how does the IC50 read?
**A.** < 100 nM

**Q.** With `C=CC(=O)Nc1ccc(C(=O)N2CC[C@@H](Nc3cc(OC)c(Cl)cn3)C2)cc1` as the molecule, how does the IC50 read?
**A.** < 100 nM

**Q.** For `C=CC(=O)Nc1ccc(C(=O)N2CC[C@@H](Nc3ncc(Br)c(OC)n3)C2)cc1`, which IC50 is on record?
**A.** < 100 nM
